These results are taken from patent publication US10034836B2, “Formulations of guanylate cyclase C agonists and methods of use” (SYNERGY PHARMACEUTICALS, INC., priority 2008, dated 2018).

Where a SMILES comes first, the peptide text is derived from it. Bridges are numbered along the chain shown (N, C = ends).

The format of series [1] is in vitro ADME. The conditions noted are these: pH 2. The protocol: FIG. 1A: Biological activity of SP-304 incubated for varying lengths of time in simulated gastric fluid (SGF). The biological activity of SP-304 was determined by measuring its ability to stimulate cGMP synthesis in T84 cells. Samples incubated for 0, 15, 30, 60, 90 and 120 minutes, respectively, were collected and analyzed for biological activity—with activity of the 0 min sample defined as 100% biological activity. The activities of the other samples are shown as percentage activity relative to the 0 min activity sample. Data points shown are the average of triplicate measurements±SD.
The stability of SP-304 in the presence of simulated gastric fluid (SGF) was determined by biological activity measurements and HPLC analyses (FIGS. 1A & 1B). SP-304 (final concentration of 8.5 mg/ml) was incubated in SGF (Proteose peptone (8.3 g/liter; Difco), D-Glucose (3.5 g/liter; Sigma), NaCl (2.05 g/liter; Sigma), KH2PO4 (0.6 g/liter; Sigma), CaCl2 (0.11 g/liter), KCl (0.37 g/liter; Sigma), Porcine bile (final 1× concentration 0.05 g/liter; Sigma) in PBS, Lysozyme (final 1× concentration 0.10 g/liter; Sigma) in PBS, Pepsin (final 1× concentration 0.0133 g/liter; Sigma) in PBS). SGF was made on the day of the experiment and the pH was adjusted to 2.0±0.1 using HCl or NaOH as necessary. After the pH adjustment, SGF is filter sterilized with 0.22 μm membrane filters. […]

A short description of series [2]: Stability in simulated intestinal fluid (SIF), HPLC analysis. It counts as in vitro ADME. The protocol:
FIG. 2B: HPLC chromatographic spectra of SP-304 samples after incubation with: (A) heat-inactivated SIF for 300 minutes, or (B) SIF for 120 minutes. The arrows show the elution position of SP-304.
FIGS. 7D-1-7D-2: HPLC chromatograms of SP-304 incubated for 0 min in SIF (FIG. 7D-1) and 60 min in SIF (FIG. 7D-2), respectively. The arrows indicate the elution positions of the parent SP-304 peptides. […] These new peptide peaks represent degradation products of SP-304.
FIGS. 7E-1-7-E2: HPLC chromatograms of SP-332 incubated for 0 min in SIF (FIG. 7E-1) and 120 min in SIF (FIG. 7E-2), respectively. The arrows indicate the elution positions of the parent SP-332 peptides.
FIGS. 7F-1-7F-2: HPLC chromatograms of SP-333 incubated for 0 min in SIF (FIG. 7F-1) and 120 min in SIF (FIG. 7F-2), respectively. The arrows indicate the elution positions of the parent SP-333 peptides.
FIGS. 7G-1-7G-5: Incubation of SP-333 with SIF for 2, 6, 12 and 24 hrs. Effect of SIF digestion on the activity of SP-333 in T84 stimulation assay was determined (FIG. 7G-1) and samples were also analyzed by HPLC (FIGS. 7G2-5). The elution positions of the parent peptide and its metabolites are indicated by arrows.
The physical stability of SP-304 peptide exposed to SIF was evaluated by HPLC using the method described for SGF digestion. […]

The test system of series [3] is healthy male and female subjects. The conditions noted are these: in vivo, po.

Turning to `CC(C)C[C@H](NC(=O)[C@@H]1CSSC[C@@H]2NC(=O)[C@H](CC(C)C)NC(=O)[C@H](CCC(=O)O)NC(=O)[C@@H](NC(=O)[C@H](CCC(=O)O)NC(=O)[C@H](CC(=O)O)NC(=O)[C@@H](N)CC(N)=O)CSSC[C@H](NC(=O)[C@H](C)NC(=O)[C@H](C(C)C)NC(=O)[C@H](CC(N)=O)NC(=O)[C@H](C(C)C)NC2=O)C(=O)N[C@@H]([C@@H](C)O)C(=O)NCC(=O)N1)C(=O)O` [SP-304, Asn^1-Asp^2-Glu^3-Cys^4-Glu^5-Leu^6-Cys^7-Val^8-Asn^9-Val^10-Ala^11-Cys^12-Thr^13-Gly^14-Cys^15-Leu^16] (H-NDECELCVNVACTGCL-OH; disulfide 4-12, 7-15), in series [1], the “activity after exposure to the acidic pH of the SGF” value was “unaltered” and the “biological activity after incubation with SGF (breakdown in SGF)” value is reported as “resistant to breakdown in SGF”. In series [2], the “HPLC analysis after incubation with heat-inactivated SIF” value is listed as “remained intact”. Further, the “most prevalent adverse event: grade I diarrhea (CTCAE)” value in series [3] turned out to be 12.7%.
